Measurements taken from patent publication US8791132B2, “Compounds and methods for treatment of hypertension” (Medivation Technologies, Inc., priority 2011, dated 2014).

Experiments:
[1] = biological target: T1, rat adrenergic α1B receptor (Rattus norvegicus, UniProt P15823); experiment: Radioligand binding, adrenergic α1B ([3H]Prazosin); conditions: 0.1 μM compound; read-out: Percentage inhibition of ligand binding, Adrenergic α1B
T1 construct: rat adrenergic α1B receptor obtained from Wistar Rat liver; from tissue; host or cells: Wistar rat liver
T1 sequence (P15823 1-515): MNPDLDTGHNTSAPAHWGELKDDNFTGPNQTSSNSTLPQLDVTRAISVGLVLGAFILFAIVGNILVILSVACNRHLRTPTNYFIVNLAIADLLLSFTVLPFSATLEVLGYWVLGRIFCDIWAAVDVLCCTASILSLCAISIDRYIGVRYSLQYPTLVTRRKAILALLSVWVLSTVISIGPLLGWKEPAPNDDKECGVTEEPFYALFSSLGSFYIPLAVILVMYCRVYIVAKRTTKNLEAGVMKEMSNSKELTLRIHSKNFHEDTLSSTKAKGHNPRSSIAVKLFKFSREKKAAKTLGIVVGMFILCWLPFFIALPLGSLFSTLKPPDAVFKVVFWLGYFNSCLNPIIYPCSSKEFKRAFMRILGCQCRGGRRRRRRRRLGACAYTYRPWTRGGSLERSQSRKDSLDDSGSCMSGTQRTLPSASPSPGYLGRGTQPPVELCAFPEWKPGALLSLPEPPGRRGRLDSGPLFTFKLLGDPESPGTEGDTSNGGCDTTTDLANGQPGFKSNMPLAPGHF
Outline: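 Filter binding with Wistar rat liver α1B preparation: test compound plus 0.25 nM [3H]prazosin, 1 h at 25° C in modified Tris-HCl buffer pH 7.4.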

[2] = biological target: T2, human recombinant adrenergic α1D receptor (Homo sapiens, UniProt P25100); experiment: Radioligand binding, adrenergic α1D ([3H]Prazosin); conditions: 0.1 μM compound; read-out: Percentage inhibition of ligand binding, Adrenergic α1D
T2 construct: expressed in transfected cells; host or cells: HEK-293
T2 sequence (P25100 1-572): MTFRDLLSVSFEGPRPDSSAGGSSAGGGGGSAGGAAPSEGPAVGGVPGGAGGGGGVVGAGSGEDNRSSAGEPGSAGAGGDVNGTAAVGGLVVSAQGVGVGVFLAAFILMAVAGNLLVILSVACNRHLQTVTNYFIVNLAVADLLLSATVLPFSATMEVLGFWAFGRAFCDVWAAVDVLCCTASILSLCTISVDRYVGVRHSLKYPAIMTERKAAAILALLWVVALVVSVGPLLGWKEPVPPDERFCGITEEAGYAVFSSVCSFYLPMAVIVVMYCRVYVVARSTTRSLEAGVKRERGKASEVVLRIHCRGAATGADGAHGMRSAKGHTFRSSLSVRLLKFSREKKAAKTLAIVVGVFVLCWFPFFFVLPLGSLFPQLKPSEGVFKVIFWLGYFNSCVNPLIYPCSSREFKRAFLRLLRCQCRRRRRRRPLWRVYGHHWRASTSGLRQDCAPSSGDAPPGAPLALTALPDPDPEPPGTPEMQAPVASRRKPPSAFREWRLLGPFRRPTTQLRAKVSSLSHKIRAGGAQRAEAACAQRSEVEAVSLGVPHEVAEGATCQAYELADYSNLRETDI
Protocol: Compounds were incubated with 0.6 nM [3H]Prazosin for 60 min at 25° C. Non-specific binding was estimated in the presence of 10 μM phentolamine. Receptor proteins were filtered and washed, the filters were then counted to determine [3H]Prazosin specifically bound. […] Biochemical assay results are presented as the percent inhibition of specific binding in Table B1.

[3] = biological target: T3, human recombinant adrenergic α2B receptor (Homo sapiens, UniProt P18089); experiment: Radioligand binding, adrenergic α2B ([3H]Rauwolscine); conditions: 0.1 μM compound; read-out: Percentage inhibition of ligand binding, Adrenergic α2B
T3 construct: expressed in transfected cells; host or cells: CHO-K1
T3 sequence (P18089 1-450): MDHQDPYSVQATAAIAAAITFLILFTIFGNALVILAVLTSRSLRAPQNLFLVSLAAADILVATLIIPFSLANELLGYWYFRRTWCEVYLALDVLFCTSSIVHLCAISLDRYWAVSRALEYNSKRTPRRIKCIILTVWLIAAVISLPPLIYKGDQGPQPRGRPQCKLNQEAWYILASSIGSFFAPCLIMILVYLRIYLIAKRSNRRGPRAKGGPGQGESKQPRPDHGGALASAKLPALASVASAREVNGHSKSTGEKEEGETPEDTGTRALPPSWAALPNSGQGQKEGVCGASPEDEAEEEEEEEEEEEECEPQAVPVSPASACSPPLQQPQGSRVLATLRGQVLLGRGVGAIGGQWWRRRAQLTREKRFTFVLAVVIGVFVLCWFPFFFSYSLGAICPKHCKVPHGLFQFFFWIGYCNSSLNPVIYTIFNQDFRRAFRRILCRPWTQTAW
Outline: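 Readout: percent inhibition of specific [3H]Rauwolscine binding, measured by filtration and counting. Conditions: CHO-K1 cell-expressed receptor, 2.5 nM radioligand, 60 min, 25° C, Tris-HCl pH 7.4 buffer with MgCl2, EDTA, BSA. Non-specific binding: 10 μM Prazosin.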

[4] = biological target: T4, human recombinant adrenergic α2A receptor (Homo sapiens, UniProt P08913); experiment: Radioligand binding, adrenergic α2A ([3H]MK-912); conditions: 0.1 μM compound; read-out: Percentage inhibition of ligand binding, Adrenergic α2A
T4 construct: expressed in transfected cells; host or cells: insect Sf9 cells
T4 sequence (P08913 1-465): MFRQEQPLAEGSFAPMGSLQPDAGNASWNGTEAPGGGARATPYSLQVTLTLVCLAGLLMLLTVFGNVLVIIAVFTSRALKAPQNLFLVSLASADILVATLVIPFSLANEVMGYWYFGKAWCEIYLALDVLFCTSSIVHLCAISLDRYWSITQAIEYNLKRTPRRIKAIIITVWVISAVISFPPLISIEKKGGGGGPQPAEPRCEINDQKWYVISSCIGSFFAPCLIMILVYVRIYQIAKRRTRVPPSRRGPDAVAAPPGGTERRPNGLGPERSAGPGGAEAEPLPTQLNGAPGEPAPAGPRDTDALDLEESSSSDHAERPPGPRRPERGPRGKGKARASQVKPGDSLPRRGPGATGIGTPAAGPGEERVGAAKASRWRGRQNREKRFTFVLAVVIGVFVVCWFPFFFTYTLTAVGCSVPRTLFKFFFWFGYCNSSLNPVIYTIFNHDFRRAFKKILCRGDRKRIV
Outline: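 Receptor expressed in insect Sf9 cells, assayed in 50 mM Tris-HCl pH 7.4 with 12.5 mM MgCl2 and 2 mM EDTA. Compounds incubated with 1 nM [3H]MK-912 for 60 min at 25 °C; nonspecific binding defined with 10 μM WB-4101. Filter-bound radioactivity counted; values are percent inhibition of specific binding.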

| Compound | inhibition at 0.1 µM [1] [%] | inhibition at 0.1 µM [2] [%] | inhibition at 0.1 µM [3] [%] | inhibition at 0.1 µM [4] [%] |
| --- | --- | --- | --- | --- |
| C/C=C(/c1ccccc1)n1c2c(c3cc(C)ccc31)CN(C)CC2 [compound 262] | 52 | 35 | 74 | 87 |
| Cc1ccc2c(c1)c1c(n2CC(O)(c2ccccc2)c2ccccc2)CCN(C)C1 [compound 263] | 1 | 6 | 54 | 61 |
| Cc1ccc2c(c1)c1c(n2C#Cc2ccncc2)CCN(C)C1 [compound 264] | 79 | 46 | 82 | 81 |
| C/C(=C\c1ccccc1)n1c2c(c3cc(C)ccc31)CN(C)CC2 [compound 265] | 50 | 30 | 70 | 67 |
| COc1ccc(/C(C)=C/n2c3c(c4cc(C)ccc42)CN(C)CC3)cn1 [compound 266] | 63 | 72 | 92 | 62 |
| Cc1ccc2c(c1)c1c(n2C=C(c2ccccc2)c2ccccc2)CCN(C)C1 [compound 267] | 7 | 26 | 85 | 63 |
| CSc1cccc(/C(C)=C/n2c3c(c4cc(C)ccc42)CN(C)CC3)c1 [compound 268] | 57 | 39 | 94 | 90 |
| COc1cc(/C(C)=C/n2c3c(c4cc(C)ccc42)CN(C)CC3)ccn1 [compound 269] | 36 | 44 | 83 | 61 |
| C/C(=C\n1c2c(c3cc(C)ccc31)CN(C)CC2)c1ccc2ccccc2c1 [compound 270] | 50 | 66 | 76 | 96 |
| C/C(=C/n1c2c(c3cc(C)ccc31)CN(C)CC2)c1ccc2ccccc2c1 [compound 271] | 65 | 83 | 71 | 97 |
| C/C(=C/n1c2c(c3cc(C)ccc31)CN(C)CC2)c1ccnn1C [compound 273] | 88 | 71 | 89 | 67 |
| C=CCC1(C)CN(C)Cc2c1n(/C=C(\C)c1ccc(F)cc1)c1ccc(C)cc21 (centres unmarked) [compound 274, 4-allyl-5-[2-(4-fluoro-phenyl)-propenyl]-2,4,8-trimethyl-2,3,4,5-tetrahydro-1H-pyrido[4,3-b]indole] | 28 | 25 | 27 | 68 |
| C/C(=C/n1c2c(c3cc(C)ccc31)CN(C)CC2)c1cnn(C)c1 [compound 275] | 75 | 61 | 94 | 51 |
| C/C(=C/n1c2c(c3cc(C)ccc31)CN(C)CC2)c1ccc(F)nc1 [compound 276] | 86 | 81 | 101 | 71 |
| C/C(=C/n1c2c(c3cc(C)ccc31)CN(C)CC2)c1ccc(C)s1 [compound 277] | 71 | 84 | 97 | 98 |
| C/C(=C\n1c2c(c3cc(C)ccc31)CN(C)CC2)c1ccc(C)s1 [compound 278] | 62 | 44 | 98 | 93 |
| C/C(=C/n1c2c(c3cc(C)ccc31)CN(C)CC2)c1cnc(N(C)C)nc1 [compound 279] | 79 | 93 | 92 | 90 |
| CSc1ccc(/C(C)=C/n2c3c(c4cc(Cl)ccc42)CN(C)CC3)cc1 [compound 280] | 76 | 65 | 98 | 97 |
| C/C(=C\n1c2c(c3cc(Cl)ccc31)CN(C)CC2)c1ccc(S(C)(=O)=O)cc1 [compound 281] | 67 | 47 | 90 | 72 |
| C/C(=C\n1c2c(c3cc(C)ccc31)CN(C)CC2)c1ccc2[nH]cnc2c1 [compound 282] | 33 | 30 | 101 | 75 |
| C/C(=C\n1c2c(c3cc(C)ccc31)CN(C)CC2)c1ccc2c(ccn2C)c1 [compound 283] | 63 | 46 | 89 | 90 |
| C/C(=C/n1c2c(c3cc(C)ccc31)CN(C)CC2)c1ccc2ccn(C)c2c1 [compound 284] | 83 | 81 | 76 | 97 |
| C/C(=C\n1c2c(c3cc(C)ccc31)CN(C)CC2)c1cc(C)cs1 [compound 285] | 63 | 71 | 97 | 98 |
| C/C(=C/n1c2c(c3cc(C)ccc31)CN(C)CC2)c1cccc2ccccc12 [compound 286] | 26 | 19 | 60 | 80 |
| C/C(=C/n1c2c(c3cc(C)ccc31)CN(C)CC2)c1sccc1C [compound 287] | 81 | 69 | 98 | 99 |
| C/C(=C/n1c2c(c3cc(C)ccc31)CN(C)CC2)c1cccc2[nH]ncc12 [compound 290] | 90 | 79 | 96 | 80 |
